# Calls of active or inactive are those of the source. The calls are words filed in the database; no cut-off is given here.
# Key:
# Mus musculus [1] = experiment: Inhibition of CCl4-induced ferroptosis in acute liver injury C57BL/6 mouse model assessed as decrease in IL-6 expression in liver at 10 to 30 mg/kg, ip pretreated with compound for 3 hrs followed by CCl4 induction and measured after 12 to 24 hrs by q-PCR analysis; type: functional, organism-based; settings: dose 10-30 mg/kg, time 15-27 hrs
# Mus musculus [2] = experiment: Inhibition of CCl4-induced ferroptosis in acute liver injury C57BL/6 mouse model assessed as reduction in IL-6 level in serum at 10 to 30 mg/kg, ip pretreated with compound for 3 hrs followed by CCl4 induction and measured after 12 to 24 hrs by ELISA analysis; type: functional, organism-based; settings: dose 10-30 mg/kg, time 15-27 hrs
# AML12 [3] = experiment: Protection against CCl4-induced ferroptosis in mouse AML12 cells assessed as reduction in Fe2+ level at 200 to 1000 nM FerroOrange dye based fluorescence analysis; type: functional, cell-based; settings: dose 200-1000 nM
# AML12 [4] = experiment: Protection against Brequinal-induced ferroptosis in mouse AML12 cells assessed as increase in cell viability at 200 nM measured for 48 hrs by cell counting-lite 2.0 analysis; type: functional, cell-based
# AML12 [5] = experiment: Protection against CCl4-induced ferroptosis in mouse AML12 cells assessed as reduction in MDA content at 200 to 1000 nM measured for 36 hrs; type: functional, cell-based; settings: dose 200-1000 nM
# [6] = molecular target: von Hippel-Lindau disease tumor suppressor/Nuclear receptor coactivator 4 (Homo sapiens, UniProt P40337+Q13772); experiment: PROTAC activity at NCOA4/VHL in human HeLa cells assessed as induction of NCOA4 degradation measured for 24 hrs by Western blot analysis; type: cell-based
# Chain of von Hippel-Lindau disease tumor suppressor/Nuclear receptor coactivator 4 (P40337 whole entry): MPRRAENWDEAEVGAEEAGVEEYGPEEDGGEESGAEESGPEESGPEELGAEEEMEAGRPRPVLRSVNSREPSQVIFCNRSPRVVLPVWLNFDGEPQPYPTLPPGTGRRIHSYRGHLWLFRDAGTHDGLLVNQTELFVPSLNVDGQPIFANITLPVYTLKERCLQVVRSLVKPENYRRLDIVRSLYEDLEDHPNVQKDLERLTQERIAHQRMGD
# Chain of von Hippel-Lindau disease tumor suppressor/Nuclear receptor coactivator 4 (Q13772 whole entry): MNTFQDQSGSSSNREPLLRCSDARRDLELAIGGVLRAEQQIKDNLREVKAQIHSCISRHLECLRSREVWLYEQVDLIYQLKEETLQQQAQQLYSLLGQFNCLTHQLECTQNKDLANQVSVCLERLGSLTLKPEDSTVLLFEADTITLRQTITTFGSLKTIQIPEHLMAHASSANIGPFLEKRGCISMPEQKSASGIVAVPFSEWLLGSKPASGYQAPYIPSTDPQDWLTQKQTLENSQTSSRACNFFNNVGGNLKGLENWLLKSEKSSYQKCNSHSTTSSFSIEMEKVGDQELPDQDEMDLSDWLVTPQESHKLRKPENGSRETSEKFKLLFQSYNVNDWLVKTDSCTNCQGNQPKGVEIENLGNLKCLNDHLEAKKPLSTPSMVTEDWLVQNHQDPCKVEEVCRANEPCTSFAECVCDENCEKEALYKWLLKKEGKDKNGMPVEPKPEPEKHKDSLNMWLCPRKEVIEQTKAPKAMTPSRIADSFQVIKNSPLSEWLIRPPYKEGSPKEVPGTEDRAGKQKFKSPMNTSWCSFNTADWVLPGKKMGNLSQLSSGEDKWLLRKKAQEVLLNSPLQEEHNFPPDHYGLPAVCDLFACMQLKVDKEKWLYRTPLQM
# AML12 [7] = experiment: Protection against CCl4-induced ferroptosis in mouse AML12 cells assessed as cell viability in presence of Deferoxamine; type: functional, cell-based
# AML12 [8] = experiment: Protection against iFSP1-induced ferroptosis in mouse AML12 cells assessed as reduction in lipid peroxidation level at 200 nM measured for 48 hrs; type: functional, cell-based
# AML12 [9] = experiment: Protection against iFSP-induced ferroptosis in mouse AML12 cells assessed as increase in cell viability at 200 nM measured for 48 hrs by cell counting-lite 2.0 analysis; type: functional, cell-based
# AML12 [10] = experiment: Effect on FTH1 mRNA expression in mouse AML12 cells at 0.12 to 10 uM measured for 36 hrs by RT-qPCR analysis; type: functional, cell-based; settings: dose 0.12-10 µM
# Mus musculus [11] = experiment: Inhibition of CCl4-induced ferroptosis in acute liver injury C57BL/6 mouse model assessed as restoration of liver color fading at 10 to 30 mg/kg, ip pretreated with compound for 3 hrs followed by CCl4 induction and measured after 12 to 24 hrs; type: functional, organism-based; settings: dose 10-30 mg/kg, time 15-27 hrs
# AML12 [12] = experiment: Protection against Erastin-induced ferroptosis in mouse AML12 cells assessed as increase in cell viability at 200 nM measured for 48 hrs by cell counting-lite 2.0 analysis; type: functional, cell-based
# AML12 [13] = experiment: Protection against Erastin-induced ferroptosis in mouse AML12 cells assessed as reduction in lipid peroxidation level at 200 nM measured for 48 hrs; type: functional, cell-based
# Mus musculus [14] = experiment: Inhibition of CCl4-induced ferroptosis in acute liver injury C57BL/6 mouse model assessed as downregulation of FTL level at 10 to 30 mg/kg, ip pretreated with compound for 3 hrs followed by CCl4 induction and measured after 12 to 24 hrs by Western blot analysis; type: functional, organism-based; settings: dose 10-30 mg/kg, time 15-27 hrs
# AML12 [15] = experiment: Protection against FINO2-induced ferroptosis in mouse AML12 cells assessed as attenuation of Fe2+ level by fluorescence imaging analysis; type: functional, cell-based
# AML12 [16] = experiment: Protection against CCl4-induced ferroptosis in mouse AML12 cells assessed as reduction in lipid peroxidation level at 200 to 1000 nM; type: functional, cell-based; settings: dose 200-1000 nM
# [17] = molecular target: von Hippel-Lindau disease tumor suppressor/Nuclear receptor coactivator 4 (Mus musculus) (UniProt P40338+Q5U4H9); experiment: PROTAC activity at NCOA4/VHL in mouse AML12 cells assessed as effect on NCOA4 mRNA level at 0.12 to 10 uM incubated for 24 hrs by qRT-PCR analysis; type: cell-based; settings: dose 0.12-10 µM
# Chain of von Hippel-Lindau disease tumor suppressor/Nuclear receptor coactivator 4 (Mus musculus) (P40338 whole entry, looked up): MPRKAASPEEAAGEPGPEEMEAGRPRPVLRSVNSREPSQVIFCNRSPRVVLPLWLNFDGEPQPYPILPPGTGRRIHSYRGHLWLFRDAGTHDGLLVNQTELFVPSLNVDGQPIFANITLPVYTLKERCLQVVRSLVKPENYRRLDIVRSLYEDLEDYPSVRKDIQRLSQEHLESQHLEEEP
# Chain of von Hippel-Lindau disease tumor suppressor/Nuclear receptor coactivator 4 (Mus musculus) (Q5U4H9 whole entry, looked up): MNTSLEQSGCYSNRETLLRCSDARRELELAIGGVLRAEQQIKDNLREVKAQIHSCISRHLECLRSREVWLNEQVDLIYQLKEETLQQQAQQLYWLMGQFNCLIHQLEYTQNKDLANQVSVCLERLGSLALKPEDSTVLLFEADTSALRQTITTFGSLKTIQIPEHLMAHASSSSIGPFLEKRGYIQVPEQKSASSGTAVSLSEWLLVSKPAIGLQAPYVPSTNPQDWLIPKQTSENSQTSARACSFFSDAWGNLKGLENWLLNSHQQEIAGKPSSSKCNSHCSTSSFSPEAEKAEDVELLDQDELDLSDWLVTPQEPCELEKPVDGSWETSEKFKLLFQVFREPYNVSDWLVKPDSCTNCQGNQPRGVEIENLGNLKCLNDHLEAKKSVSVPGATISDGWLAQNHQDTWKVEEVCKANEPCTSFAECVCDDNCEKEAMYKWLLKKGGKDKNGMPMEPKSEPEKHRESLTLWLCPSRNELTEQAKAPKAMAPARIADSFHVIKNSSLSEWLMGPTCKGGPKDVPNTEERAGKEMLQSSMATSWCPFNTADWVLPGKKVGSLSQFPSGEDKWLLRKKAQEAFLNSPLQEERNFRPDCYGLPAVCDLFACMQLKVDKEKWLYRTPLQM
# AML12 [18] = experiment: Downregulation of MDA level in mouse AML12 cells measured for 36 hrs; type: functional, cell-based; settings: dose <= 10.0 µM
# Mus musculus [19] = experiment: Inhibition of CCl4-induced ferroptosis in acute liver injury C57BL/6 mouse model assessed as inhibition of AST level at 10 to 30 mg/kg, ip pretreated with compound for 3 hrs followed by CCl4 induction and measured after 12 to 24 hrs; type: functional, organism-based; settings: dose 10-30 mg/kg, time 15-27 hrs
# AML12 [20] = experiment: Upregulation of FTL level in mouse AML12 cells incubated for 24 hrs by Western blot analysis; type: functional, cell-based; settings: dose <= 10.0 µM
# Mus musculus [21] = experiment: Inhibition of CCl4-induced ferroptosis in acute liver injury C57BL/6 mouse model assessed as reduction in necrosis at 10 to 30 mg/kg, ip pretreated with compound for 3 hrs followed by CCl4 induction and measured after 12 to 24 hrs by H and E staining based analysis; type: functional, organism-based; settings: dose 10-30 mg/kg, time 15-27 hrs
# Mus musculus [22] = experiment: Inhibition of CCl4-induced ferroptosis in acute liver injury C57BL/6 mouse model assessed as reduction in hepatocyte damage at 10 to 30 mg/kg, ip pretreated with compound for 3 hrs followed by CCl4 induction and measured after 12 to 24 hrs by H and E staining based analysis; type: functional, organism-based; settings: dose 10-30 mg/kg, time 15-27 hrs
# AML12 [23] = experiment: Protection against Brequinal-induced ferroptosis in mouse AML12 cells assessed as attenuation of Fe2+ level by fluorescence imaging analysis; type: functional, cell-based
# AML12 [24] = experiment: Protection against RSL3-induced ferroptosis in mouse AML12 cells assessed as attenuation of Fe2+ level by fluorescence imaging analysis; type: functional, cell-based
# Mus musculus [25] = experiment: Inhibition of CCl4-induced ferroptosis in acute liver injury C57BL/6 mouse model assessed as attenuation of iron deposition in liver at 10 to 30 mg/kg, ip pretreated with compound for 3 hrs followed by CCl4 induction and measured after 12 to 24 hrs by perls blue staining based analysis; type: functional, organism-based; settings: dose 10-30 mg/kg, time 15-27 hrs
# AML12 [26] = experiment: Upregulation of FTH1 level in mouse AML12 cells incubated for 24 hrs by Western blot analysis; type: functional, cell-based; settings: dose <= 10.0 µM
# AML12 [27] = experiment: Protection against CCl4-induced ferroptosis in mouse AML12 cells assessed as cell viability in presence of Ferrostatin-1; type: functional, cell-based
structure (smiles),measurement,setting,value
Cc1ncsc1-c1ccc(CNC(=O)[C@@H]2C[C@@H](O)CN2C(=O)[C@H](NC(=O)CCCC(=O)NCCOCCOCCOCCOc2ccc3c(c2)CCN(c2cccc(-c4nc5ccc(N6CCN(C)CC6)cc5[nH]4)c2)C3)C(C)(C)C)cc1,inhibition,Mus musculus [1],Active
same,inhibition,Mus musculus [2],Active
same,Activity,AML12 [3],Active
same,Activity,AML12 [4],Active
same,Activity,AML12 [5],Active
same,DC50,[6],3 nM
same,EC50,AML12 [7],410 nM
same,Activity,AML12 [8],Active
same,Activity,AML12 [9],Active
same,Activity,AML12 [10],inactive
same,inhibition,Mus musculus [11],Active
same,Activity,AML12 [12],Active
same,Activity,AML12 [13],Active
same,inhibition,Mus musculus [14],Active
same,Activity,AML12 [15],Active
same,Activity,AML12 [16],Active
same,Activity,[17],Active
same,Activity,AML12 [18],Dose-Dependent Effect
same,inhibition,Mus musculus [19],Active
same,Activity,AML12 [20],Dose-Dependent Effect
same,inhibition,Mus musculus [21],Active
same,inhibition,Mus musculus [22],Active
same,Activity,AML12 [23],Active
same,Activity,AML12 [24],Active
same,inhibition,Mus musculus [25],Active
same,Activity,AML12 [26],Dose-Dependent Effect
same,EC50,AML12 [27],9 nM
